# In US12102648B2, “Orally-bioavailable nucleoside analogs” (priority 2021, dated 2024):
# Where two headings read alike, the source gives them in different places.
# Experiment: in vitro
# Format: in vitro ADME
# Conditions: human
# Procedure, shortened: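 Caco-2 monolayers cultured 19 days on inserts (TEER >600 […]); bidirectional A-to-B and B-to-A transport at 37° C over 90 min, samples quantified by LC/MS/MS. Papp, efflux ratio and recovery calculated; ER >2 flags potential efflux substrates.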
# [1] = Caco-2 monolayer, apical to basolateral, 90-minute incubation, read-out: Papp, A-B
# [2] = Caco-2 monolayer, basolateral to apical, 90-minute incubation, read-out: Papp, B-A
# [3] = Caco-2 monolayer, ER>2 indicates potential efflux transporter substrate, read-out: ER (efflux ratio)
Compound,Papp A→B at 90 min (Caco-2) [×10⁻⁶ cm/s],Papp B→A at 90 min (Caco-2) [×10⁻⁶ cm/s],efflux ratio at 90 min (Caco-2),Papp A→B at 90 min [1] [×10⁻⁶ cm/s],Papp B→A at 90 min [2] [×10⁻⁶ cm/s],efflux ratio at 90 min [3]
"CC(C)(C)C(=O)OCOC(=O)Nc1ncnn2c([C@]3(C#N)O[C@H](CO)[C@@H](OC(=O)CC4CCCCC4)[C@H]3O)ccc12 [Compound 370, (((7-((2R,3R,4S,5R)-2-cyano-4-(2-cyclohexylacetoxy)-3-hydroxy-5-(hydroxymethyl)tetrahydrofuran-2-yl)pyrrolo[2,1-f][1,2,4]triazin-4-yl)carbamoyl)oxy)methyl pivalate]",0.3,0.23,0.77,,,
"N#C[C@@]1(c2ccc3c(N)ncnn23)O[C@H](COC(=O)C[C@H]2CC[C@H](N)CC2)[C@@H](O)[C@H]1O [Compound 266, ((2R,3S,4R,5R)-5-(4-aminopyrrolo[2,1-f][1,2,4]triazin-7-yl)-5-cyano-3,4-dihydroxytetrahydrofuran-2-yl)methyl 2-((1r,4R)-4-aminocyclohexyl)acetate]",0.19,0.38,2,,,
"N#C[C@@]1(c2ccc3c(NC(=O)c4ccccc4)ncnn23)O[C@H](CO)[C@@H](OC(=O)CC2CCCCC2)[C@H]1O [Compound 342, (2R,3S,4R,5R)-5-(4-benzamidopyrrolo[2,1-f][1,2,4]triazin-7-yl)-5-cyano-4-hydroxy-2-(hydroxymethyl)tetrahydrofuran-3-yl 2-cyclohexylacetate]",1.1,0.39,0.34,,,
"CC(C)CC(=O)OC[C@H]1O[C@@](C#N)(c2ccc3c(N)ncnn23)[C@H](O)[C@@H]1OC(=O)CC1CCCCC1 [Compound 18, ((2R,3S,4R,5R)-5-(4-aminopyrrolo[2,1-f][1,2,4]triazin-7-yl)-5-cyano-3-(2-cyclohexylacetoxy)-4-hydroxytetrahydrofuran-2-yl)methyl 3-methylbutanoate]",16,8.8,0.6,,,
"CCC(=O)OC[C@H]1O[C@@H](n2cnc3c(NC)nc(N)nc32)[C@](C)(F)[C@@H]1O [Compound 180, ((2R,3R,4R,5R)-5-(2-amino-6-(methylamino)-9H-purin-9-yl)-4-fluoro-3-hydroxy-4-methyltetrahydrofuran-2-yl)methyl propionate]",,,,4.6,7.6,1.6
"CNc1nc(N)nc2c1ncn2[C@@H]1O[C@H](COC(=O)Cc2ccccc2)[C@@H](OC(C)=O)[C@@]1(C)F [Compound 217, ((2R,3R,4R,5R)-3-acetoxy-5-(2-amino-6-(methylamino)-9H-purin-9-yl)-4-fluoro-4-methyltetrahydrofuran-2-yl)methyl 2-phenylacetate]",,,,14,6.1,0.45
"CC(=O)OCOC(=O)Nc1ncnn2c([C@]3(C#N)O[C@H](COC(=O)Cc4ccccc4)[C@@H](OC(=O)[C@@H](N)C(C)C)[C@H]3O)ccc12 [Compound 355, (2R,3S,4R,5R)-5-(4-(((acetoxymethoxy)carbonyl)amino)pyrrolo[2,1-f][1,2,4]triazin-7-yl)-5-cyano-4-hydroxy-2-((2-phenylacetoxy)methyl)tetrahydrofuran-3-yl L-valinate]",,,,1.5,0.49,0.33
"CCCCCOC(=O)Nc1ncnn2c([C@]3(C#N)O[C@H](COC(=O)CC4CCCCC4)[C@@H](O)[C@H]3O)ccc12 [Compound 88, ((2R,3S,4R,5R)-5-cyano-3,4-dihydroxy-5-(4-(((pentyloxy)carbonyl)amino)pyrrolo[2,1-f][1,2,4]triazin-7-yl)tetrahydrofuran-2-yl)methyl 2-cyclohexylacetate]",2.1,1.6,0.78,,,
"CCCCC(=O)Nc1ncnn2c([C@]3(C#N)O[C@H](COC(=O)CC(C)C)[C@@H](O)[C@H]3O)ccc12 [Compound 283, ((2R,3S,4R,5R)-5-cyano-3,4-dihydroxy-5-(4-pentanamidopyrrolo[2,1-f][1,2,4]triazin-7-yl)tetrahydrofuran-2-yl)methyl 3-methylbutanoate]",3,1,0.34,,,
"CC(C)[C@H](N)C(=O)OC[C@H]1O[C@@](C#N)(c2ccc3c(N)ncnn23)[C@H](O)[C@@H]1OC(=O)CC1CCCCC1 [Compound 34, ((2R,3S,4R,5R)-5-(4-aminopyrrolo[2,1-f][1,2,4]triazin-7-yl)-5-cyano-3-(2-cyclohexylacetoxy)-4-hydroxytetrahydrofuran-2-yl)methyl L-valinate]",1.6,4.8,3,,,
"CCCCC(=O)Nc1ncnn2c([C@]3(C#N)O[C@H](COC(C)=O)[C@@H](O)[C@H]3O)ccc12 [Compound 288, ((2R,3S,4R,5R)-5-cyano-3,4-dihydroxy-5-(4-pentanamidopyrrolo[2,1-f][1,2,4]triazin-7-yl)tetrahydrofuran-2-yl)methyl acetate]",0.91,6.9,7.7,,,
"CNc1nc(NC(=O)CC(C)C)nc2c1ncn2[C@@H]1O[C@H](COC(C)=O)[C@@H](OC(=O)CC(C)C)[C@@]1(C)F [Compound 332, (2R,3R,4R,5R)-2-(acetoxymethyl)-4-fluoro-4-methyl-5-(6-(methylamino)-2-(3-methylbutanamido)-9H-purin-9-yl)tetrahydrofuran-3-yl 3-methylbutanoate]",11,2.6,0.22,,,
"N#C[C@@]1(c2ccc3c(N)ncnn23)O[C@H](COC(=O)Cc2ccccc2)[C@@H](OC(=O)Cc2ccccc2)[C@H]1O [Compound 44, (2R,3S,4R,5R)-5-(4-aminopyrrolo[2,1-f][1,2,4]triazin-7-yl)-5-cyano-4-hydroxy-2-((2-phenylacetoxy)methyl)tetrahydrofuran-3-yl 2-phenylacetate]",,,,9.8,25,2.5
"CC(C)C(=O)OC[C@H]1O[C@@](C#N)(c2ccc3c(N)ncnn23)[C@H](O)[C@@H]1OC(=O)C(C)C [Compound 62, (2R,3S,4R,5R)-5-(4-aminopyrrolo[2,1-f][1,2,4]triazin-7-yl)-5-cyano-4-hydroxy-2-((isobutyryloxy)methyl)tetrahydrofuran-3-yl isobutyrate]",3,2.4,0.8,,,
"N#C[C@@]1(c2ccc3c(N)ncnn23)O[C@H](COC(=O)CC2CC2)[C@@H](O)[C@H]1O [Compound 258, [(2R,3S,4R,5R)-5-{4-aminopyrrolo[2,1-f][1,2,4]triazin-7-yl}-5-cyano-3,4-dihydroxyoxolan-2-yl]methyl 2-cyclopropylacetate]",0.09,0.3,3.5,,,
"CC(C)[C@H](N)C(=O)Nc1ncnn2c([C@]3(C#N)O[C@H](COC(=O)[C@@H](N)C(C)C)[C@@H](O)[C@H]3O)ccc12 [Compound 110, ((2R,3S,4R,5R)-5-(4-((S)-2-amino-3-methylbutanamido)pyrrolo[2,1-f][1,2,4]triazin-7-yl)-5-cyano-3,4-dihydroxytetrahydrofuran-2-yl)methyl L-valinate]",0.02,0.33,15,,,
"CC(=O)OCOC(=O)Nc1ncnn2c([C@]3(C#N)O[C@H](COC(=O)CC4CCCCC4)[C@@H](OC(=O)[C@@H](N)C(C)C)[C@H]3O)ccc12 [Compound 358, (2R,3S,4R,5R)-5-(4-(((acetoxymethoxy)carbonyl)amino)pyrrolo[2,1-f][1,2,4]triazin-7-yl)-5-cyano-2-((2-cyclohexylacetoxy)methyl)-4-hydroxytetrahydrofuran-3-yl L-valinate]",0.3,0.1,0.33,,,
"CNc1nc(N)nc2c1ncn2[C@@H]1O[C@H](COC(=O)CC(C)C)[C@@H](OC(=O)CC(C)C)[C@@]1(C)F [Compound 312, (2R,3R,4R,5R)-5-(2-amino-6-(methylamino)-9H-purin-9-yl)-4-fluoro-4-methyl-2-(((3-methylbutanoyl)oxy)methyl)tetrahydrofuran-3-yl 3-methylbutanoate]",23,6.5,0.28,,,
"CCCCC(=O)Nc1ncnn2c([C@]3(C#N)O[C@H](COC(=O)Cc4ccccc4)[C@@H](O)[C@H]3O)ccc12 [Compound 277, ((2R,3S,4R,5R)-5-cyano-3,4-dihydroxy-5-(4-pentanamidopyrrolo[2,1-f][1,2,4]triazin-7-yl)tetrahydrofuran-2-yl)methyl 2-phenylacetate]",,,,0.47,5.4,12
"CC(C)[C@H](N)C(=O)Nc1ncnn2c([C@]3(C#N)O[C@H](COC(=O)CC4CCCCC4)[C@@H](O)[C@H]3O)ccc12 [Compound 112, [(2R,3S,4R,5R)-5-{4-[(2S)-2-amino-3-methylbutanamido]pyrrolo[2,1-f][1,2,4]triazin-7-yl}-5-cyano-3,4-dihydroxyoxolan-2-yl]methyl 2-cyclohexylacetate]",0.14,6.1,44,,,
"N#C[C@@]1(c2ccc3c(N)ncnn23)O[C@H](COC(=O)CC2(N)CCCCC2)[C@@H](OC(=O)CC2CCCCC2)[C@H]1O [Compound 368, (2R,3S,4R,5R)-2-((2-(1-aminocyclohexyl)acetoxy)methyl)-5-(4-aminopyrrolo[2,1-f][1,2,4]triazin-7-yl)-5-cyano-4-hydroxytetrahydrofuran-3-yl 2-cyclohexylacetate]",1.4,18,13,,,
"N#C[C@@]1(c2ccc3c(N)ncnn23)O[C@H](COC(=O)CC2CCCCCC2)[C@@H](O)[C@H]1O [Compound 261, ((2R,3S,4R,5R)-5-(4-aminopyrrolo[2,1-f][1,2,4]triazin-7-yl)-5-cyano-3,4-dihydroxytetrahydrofuran-2-yl)methyl 2-cycloheptylacetate]",0.79,1.1,1.4,,,
